“And” between values parts separate entries of the source, which are not always exact repeats. Equal entries are not always repeated. Where two headings read alike, the source gives them in different places.
Experiments:
solid tumors = conditions: single agent dasatinib; cited from earlier work
[1] = system: advanced or recurrent epithelial ovarian, peritoneal, or tubal cancer; assay: Response
[2] = Pharmacokinetics of dasatinib in plasma; conditions: for AUC: 100 mg, AUC(TAU), TAU = 24 h
[3] = Phase I 3+3 dose escalation: DLT, MTD, recommended phase II dose
[4] = cited from earlier work
[5] = system: recurrent or persistent ovarian cancer; conditions: single agent 100 mg daily; ref Personal communication, Dr. Russell J. Schilder; cited from earlier work
[6] = all patients (N=20), all cycles
[7] = cohort 1 (dasatinib 100 mg), n patients
[8] = cohort 2 (dasatinib 120 mg), n patients
[9] = cohort 3 (dasatinib 150 mg), n patients
[10] = dasatinib 100 mg qd + paclitaxel + carboplatin, N=6, all cycles, patients (%)
[11] = dasatinib 120 mg qd + paclitaxel + carboplatin, N=3, all cycles, patients (%)
[12] = paclitaxel and dasatinib, Cycle 2 Day 1, N=18
[13] = with paclitaxel (Cycle 2 Day 1) vs dasatinib alone (Cycle 1 Day 15)

Cc1nc(Nc2ncc(C(=O)Nc3c(C)cccc3Cl)s2)cc(N2CCN(CCO)CC2)n1 [dasatinib, N-(2-chloro-6-methyl-phenyl)-2-(6-(4-(2-hydroxyethyl)-piperazin-1-yl)-2-methylpyrimidin-4-ylamino)thiazole-5-carboxamide]
best clinical response: PRs (solid tumors): 1–5% | best clinical response: stable disease (solid tumors): 5–23% | complete responses (CR) ([1]; 3/20): 15% | partial responses (PR) ([1]; 5/20): 25% | PFS6-month actuarial estimate ([1]; 95% confidence interval 69–100%): 86% | median OS ([1]; in vivo): 16.2 months | median PFS ([1]; in vivo): 7.8 months | dose modifications secondary to hematologic toxicity (46/95 dose modifications): 48% | patients reporting fatigue (any grade) (all patients): Ninety | fatigue grade 3 [6]: 10% | thrombocytopenia grade 3–4 [6]: 35% | patients requiring dose modifications (cohort 1 (dasatinib 100 mg)): 100% | urinary tract infection (cohort 1 (dasatinib 100 mg)): 1 | grade 1 hyponatremia (cohort 1 (dasatinib 100 mg), n): 1 | grade 1 sinus pain (cohort 1 (dasatinib 100 mg), n): 9 Pain toxicity also included the following: (1) grade 2 neuralgia (n=1), grade 1 sinus pain (n=1), and grade 1 throat pain (n=1) in cohort 1; and (2) grade 1 back pain (n=1) and grade 1 extremity pain (n=1) in cohort 2. | grade 1 throat pain (cohort 1 (dasatinib 100 mg), n): 9 Pain toxicity also included the following: (1) grade 2 neuralgia (n=1), grade 1 sinus pain (n=1), and grade 1 throat pain (n=1) in cohort 1; and (2) grade 1 back pain (n=1) and grade 1 extremity pain (n=1) in cohort 2. | grade 2 neuralgia (cohort 1 (dasatinib 100 mg), n): 9 Pain toxicity also included the following: (1) grade 2 neuralgia (n=1), grade 1 sinus pain (n=1), and grade 1 throat pain (n=1) in cohort 1; and (2) grade 1 back pain (n=1) and grade 1 extremity pain (n=1) in cohort 2. | pulmonary toxicity, grade 1 other unspecified etiology (cohort 1 (dasatinib 100 mg), n): 10 Pulmonary toxicity also included the following: (1) grade 1 other unspecified etiology (n=1) in cohort 1; and (2) grade 2 hypoxia (n=1 in cohort 2. | gastrointestinal toxicity, other unspecified etiologies, grade 1 [7]: 5 Gastrointestinal toxicity included other unspecified etiologies: (1) grade 1 (n=1) and grade 2 (n=1) in cohort 1; (2) grade 1 (n=1) in cohort 2; and (3) grade 1 (n=1) in cohort 3. | gastrointestinal toxicity, other unspecified etiologies, grade 2 [7]: 5 Gastrointestinal toxicity included other unspecified etiologies: (1) grade 1 (n=1) and grade 2 (n=1) in cohort 1; (2) grade 1 (n=1) in cohort 2; and (3) grade 1 (n=1) in cohort 3. | grade 1 dehydration [7]: 4 Gastrointestinal toxicity also included the following: (1) grade 1 dehydration (n=1) in cohort 1; (2) grade 1 distension (n=1), grade 1 xerostomia (n=1), grade 1 gastritis (n=1) in cohort 2; and (3) grade 1 xerostomia (n=1) in cohort 3. | grade 1 joint-function toxicity [7]: 1 Additional toxicities in cohort 1 included musculoskeletal toxicity characterized by grade 1 joint-function toxicity (n=1) and grade 1 muscular complaints (n=1). The grade 3 myalgia is reported under pain. | grade 1 muscular complaints [7]: 1 Additional toxicities in cohort 1 included musculoskeletal toxicity characterized by grade 1 joint-function toxicity (n=1) and grade 1 muscular complaints (n=1). The grade 3 myalgia is reported under pain. | cases of grade 1 somnolence/depressed level of consciousness (cohort 2 (dasatinib 120 mg)): 8 Neurologic toxicity included one case of grade 1 somnolence/depressed level of consciousness in cohort 2. | patients requiring dose modifications (cohort 2 (dasatinib 120 mg)): 67% | grade 1 back pain (cohort 2 (dasatinib 120 mg), n): 9 Pain toxicity also included the following: (1) grade 2 neuralgia (n=1), grade 1 sinus pain (n=1), and grade 1 throat pain (n=1) in cohort 1; and (2) grade 1 back pain (n=1) and grade 1 extremity pain (n=1) in cohort 2. | grade 1 extremity pain (cohort 2 (dasatinib 120 mg), n): 9 Pain toxicity also included the following: (1) grade 2 neuralgia (n=1), grade 1 sinus pain (n=1), and grade 1 throat pain (n=1) in cohort 1; and (2) grade 1 back pain (n=1) and grade 1 extremity pain (n=1) in cohort 2. | grade 1 hypokalemia (cohort 2 (dasatinib 120 mg), n): 1 | grade 1 hypomagnesemia (cohort 2 (dasatinib 120 mg), n): 1 | grade 2 hypoxia (cohort 2 (dasatinib 120 mg), n): 10 Pulmonary toxicity also included the following: (1) grade 1 other unspecified etiology (n=1) in cohort 1; and (2) grade 2 hypoxia (n=1 in cohort 2. | gastrointestinal toxicity, other unspecified etiologies, grade 1 [8]: 5 Gastrointestinal toxicity included other unspecified etiologies: (1) grade 1 (n=1) and grade 2 (n=1) in cohort 1; (2) grade 1 (n=1) in cohort 2; and (3) grade 1 (n=1) in cohort 3. | grade 1 distension [8]: 4 Gastrointestinal toxicity also included the following: (1) grade 1 dehydration (n=1) in cohort 1; (2) grade 1 distension (n=1), grade 1 xerostomia (n=1), grade 1 gastritis (n=1) in cohort 2; and (3) grade 1 xerostomia (n=1) in cohort 3. | grade 1 gastritis [8]: 4 Gastrointestinal toxicity also included the following: (1) grade 1 dehydration (n=1) in cohort 1; (2) grade 1 distension (n=1), grade 1 xerostomia (n=1), grade 1 gastritis (n=1) in cohort 2; and (3) grade 1 xerostomia (n=1) in cohort 3. | grade 1 xerostomia [8]: 4 Gastrointestinal toxicity also included the following: (1) grade 1 dehydration (n=1) in cohort 1; (2) grade 1 distension (n=1), grade 1 xerostomia (n=1), grade 1 gastritis (n=1) in cohort 2; and (3) grade 1 xerostomia (n=1) in cohort 3. | patients requiring dose modifications (cohort 3 (dasatinib 150 mg)): 91% | grade 1 elevated alkaline phosphatase (cohort 3 (dasatinib 150 mg), n): 7 Metabolic toxicities also included the following: grade 1 elevated transaminases (n=1), grade 1 elevated alkaline phosphatase (n=1), and proteinuria (grade 1 (n=1), grade 2 (n=1)) in cohort 3. | grade 1 elevated transaminases (cohort 3 (dasatinib 150 mg), n): 7 Metabolic toxicities also included the following: grade 1 elevated transaminases (n=1), grade 1 elevated alkaline phosphatase (n=1), and proteinuria (grade 1 (n=1), grade 2 (n=1)) in cohort 3. | grade 1 hyponatremia (cohort 3 (dasatinib 150 mg), n): 2 | grade 2 hypocalcemia (cohort 3 (dasatinib 150 mg), n): 1 | grade 3 hypercalcemia (cohort 3 (dasatinib 150 mg), n): 1 | hypokalemia grade 1 (cohort 3 (dasatinib 150 mg), n): 3 | hypokalemia grade 4 (cohort 3 (dasatinib 150 mg), n): 1 | hypomagnesemia grade 1 (cohort 3 (dasatinib 150 mg), n): 2 | hypomagnesemia grade 2 (cohort 3 (dasatinib 150 mg), n): 1 | hypophosphatemia grade 2 (cohort 3 (dasatinib 150 mg), n): 2 | hypophosphatemia grade 3 (cohort 3 (dasatinib 150 mg), n): 1 | proteinuria grade 1 (cohort 3 (dasatinib 150 mg), n): 7 Metabolic toxicities also included the following: grade 1 elevated transaminases (n=1), grade 1 elevated alkaline phosphatase (n=1), and proteinuria (grade 1 (n=1), grade 2 (n=1)) in cohort 3. | proteinuria grade 2 (cohort 3 (dasatinib 150 mg), n): 7 Metabolic toxicities also included the following: grade 1 elevated transaminases (n=1), grade 1 elevated alkaline phosphatase (n=1), and proteinuria (grade 1 (n=1), grade 2 (n=1)) in cohort 3. | gastrointestinal toxicity, other unspecified etiologies, grade 1 [9]: 5 Gastrointestinal toxicity included other unspecified etiologies: (1) grade 1 (n=1) and grade 2 (n=1) in cohort 1; (2) grade 1 (n=1) in cohort 2; and (3) grade 1 (n=1) in cohort 3. | grade 1 epitaxis [9]: 1 | grade 1 facial and neck edema [9]: 1 | grade 1 weight loss [9]: 2 | grade 1 xerostomia [9]: 4 Gastrointestinal toxicity also included the following: (1) grade 1 dehydration (n=1) in cohort 1; (2) grade 1 distension (n=1), grade 1 xerostomia (n=1), grade 1 gastritis (n=1) in cohort 2; and (3) grade 1 xerostomia (n=1) in cohort 3. | grade 3 hypotension [9]: 1 | Allergy, Grade 3 [10]: 1 (17) | Dermatogic: Alopecia, Grade 2 [10]: 6 (100) | Dermatogic: Pruritis, Grade 2 [10]: 1 (17) | Gastrointestinal: Anorexia, Grade 1 [10]: 2 (33) | Gastrointestinal: Mucositis/Stomatitis, Grade 1 [10]: 2 (33) | Neurologic: Ocular, Grade 1 [10]: 1 (17) | Pain: Joint, Grade 2 [10]: 2 (33) | Pain: Muscle, Grade 2 [10]: 1 (17) | Thrombocytopenia, Grade 1 [10]: 2 (33) | Thrombocytopenia, Grade 2 [10]: 1 (17) | Thrombocytopenia, Grade 3 [10]: 1 (17) | Thrombocytopenia, Grade 4 [10]: 1 (17) | fatigue grade 3 [10]: 2 (33) | Allergy, Grade 3 [11]: 1 (33) | Dermatogic: Alopecia, Grade 1 [11]: 1 (33) | Dermatogic: Alopecia, Grade 2 [11]: 2 (67) | Gastrointestinal: Anorexia, Grade 1 [11]: 3 (100) | Gastrointestinal: Mucositis/Stomatitis, Grade 1 [11]: 1 (33) | Neurologic: Ocular, Grade 1 [11]: 1 (33) | Pain: Joint, Grade 2 [11]: 1 (33) | Thrombocytopenia, Grade 3 [11]: 1 (33) | clinically-significant pleural effusions, ascites, or cardiac issues (in vivo): not observed | other infections (in vivo): Two | patient deaths during the treatment phase (in vivo): no patient deaths | reports of infection associated with febrile neutropenia (in vivo): one | T-HALF, Mean (SD) ([2]; dasatinib alone, Cycle 1 Day 15, N=14): 6.17 h and 6.17 (2.32) h | Tmax ([2]; human, plasma, oral): 2 h | AUC ([2]; human, plasma, oral, Geo Mean (%CV), dasatinib alone, Cycle 1 Day 15, N=14, dose-normalized to 100 mg): 478 ng·h/mL | AUC ([2]; human, plasma, oral, Geo Mean (%CV), paclitaxel and dasatinib, Cycle 2 Day 1, N=18, dose-normalized to 100 mg): 415 ng·h/mL | Cmax ([2]; human, plasma, oral, Cmax, Geo Mean (%CV), paclitaxel and dasatinib, Cycle 2 Day 1, N=18, dose-normalized to 100 mg): 78 ng/mL | inter-individual variability (%CV) for exposure ([2]; in vivo): 40–90% | T-HALF, Mean (SD) [2, 12]: 5.27 h and 5.27 (1.26) h | Tmax, Median (min, max) [2, 12]: 2.00 (0.50, 6.00) h | reduction of geometric mean AUC(0-T) [2, 13]: 11% | reduction of geometric mean AUC(TAU) [2, 13]: 13% | DLT observed ([3]; dasatinib 120 mg daily, paclitaxel 175 mg/m2, carboplatin AUC 6): no DLTs | DLT observed ([3]; dasatinib 150 mg daily, paclitaxel 175 mg/m2, carboplatin AUC 6, first cycle): no DLTs | grade 4 neutropenia at 2 weeks ([3]; first three patients of the dasatinib 150 mg daily cohort): all three patients | predefined MTD ([3]; in combination with paclitaxel and carboplatin, doses up to 150 mg daily): not reached | incidence of effusions ([4]; 140 mg daily): 9% | severe pericardial effusions [4]: 1% | severe pleural effusions [4]: 5% | grade 3 to 4 hematologic toxicity ([4]; patients with solid tumors): 3–6% | Grade 3 and 4 neutropenia and thrombocytopenia [5]: not observed | cases of grade 3 anemia [5]: 1 | median PFS [5]: 2.1 months | responses [5]: no responses
